Where two headings read alike, the source gives them in different places.
Legend:
[1] = molecular target: T1, androgen receptor (AR) splicing variant AR-v7 (Homo sapiens, UniProt P10275); test: Degradation activity on androgen receptor splicing variant AR-v7 in 22RV1 cells (ELISA); format: cell-based; settings: AR-v7 degradation in 22RV1 cells, 48 h
T1 construct: The degradation activity of compounds on AR-v7 in 22RV1 cells; host or cells: 22RV1 cells
T1 sequence (P10275 1-644 isoform P10275-3): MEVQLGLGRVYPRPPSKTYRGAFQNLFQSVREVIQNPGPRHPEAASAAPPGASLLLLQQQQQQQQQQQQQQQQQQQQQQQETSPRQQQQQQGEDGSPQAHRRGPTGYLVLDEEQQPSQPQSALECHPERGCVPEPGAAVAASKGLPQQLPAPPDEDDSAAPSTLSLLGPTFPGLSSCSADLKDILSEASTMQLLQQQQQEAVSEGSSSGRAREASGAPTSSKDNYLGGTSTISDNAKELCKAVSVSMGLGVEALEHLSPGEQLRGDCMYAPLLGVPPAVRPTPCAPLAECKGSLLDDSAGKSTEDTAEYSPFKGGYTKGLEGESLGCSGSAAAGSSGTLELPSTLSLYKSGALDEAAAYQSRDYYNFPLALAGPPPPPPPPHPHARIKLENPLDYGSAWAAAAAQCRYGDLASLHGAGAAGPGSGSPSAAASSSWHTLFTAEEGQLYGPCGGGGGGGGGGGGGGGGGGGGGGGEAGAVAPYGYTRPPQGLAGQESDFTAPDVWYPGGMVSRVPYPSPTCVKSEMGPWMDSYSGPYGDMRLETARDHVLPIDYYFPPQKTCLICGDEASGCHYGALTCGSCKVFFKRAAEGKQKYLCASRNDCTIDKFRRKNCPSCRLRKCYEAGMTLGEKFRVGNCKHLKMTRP

[2] = tested on: 22RV1 cells; settings: Homo sapiens, 22Rv1, 144 h
[3] = read-out: 22RV1 IC50 (nM), 22RV1 cells, 6 days culture, CCK-8, OD 450 nm

| Compound | DC50 ([1]; class symbols) | further results |
| --- | --- | --- |
| Cc1nc(-c2cccc(Oc3ccc(C(C)(C)c4ccc(O[C@H]5C[C@H](Nc6ccc7c(c6)C(=O)N(C6CCC(=O)NC6=O)C7=O)C5)cc4)cc3)n2)no1 (stereo partly shown) [Example 421] | < 10 nM | IC50 ([2]; read-out: 22RV1 IC50 (nM)): 3 nM |
| Cc1cnc(N2CC3(COC3)C2)nc1COc1ccc(C(C)(C)c2ccc(O[C@H]3C[C@H](Nc4ccc5c(c4)C(=O)N(C4CCC(=O)NC4=O)C5=O)C3)cc2)cc1 (stereo partly shown) [Example 204] | < 10 nM | IC50 [2, 3]: 6 nM |
| CCC(CC)(c1ccc(Oc2cnc(-c3noc(C)n3)nc2)cc1)c1ccc(O[C@H]2C[C@H](Nc3ccc4c(c3)C(=O)N(C3CCC(=O)NC3=O)C4=O)C2)cc1 (stereo partly shown) [Example 380, 2-(2,6-dioxopiperidin-3-yl)-5-(((1r,3r)-3-(4-(3-(4-((2-(5-methyl-1,2,4-oxadiazol-3-yl)pyrimidin-5-yl)oxy)phenyl)pentan-3-yl)phenoxy)cyclobutyl)amino)isoindolin-1,3-dione] | < 10 nM | IC50 [2, 3]: 5 nM |
| CC(C)(c1ccc(Oc2nncs2)cc1)c1ccc(O[C@H]2C[C@H](Nc3ccc4c(c3)C(=O)N(C3CCC(=O)NC3=O)C4=O)C2)cc1 (stereo partly shown) [Example 592] | < 10 nM | IC50 [2, 3]: 8 nM |
| CC(C)(c1ccc(OCc2ccnc(N3CC4(COC4)C3)n2)cc1)c1ccc(O[C@H]2C[C@H](Nc3ccc4c(c3)C(=O)N(C3CCC(=O)NC3=O)C4=O)C2)c(F)c1 (stereo partly shown) [Example 364, 5-(((1r,3r)-3-(4-(2-(4-((2-(2-oxa-6-azaspiro[3.3]heptane-6-yl)pyrimidin-4-yl)methoxy)phenyl)isopropan-2-yl)-2-fluorophenoxy)cyclobutyl)amino)-2-(2,6-dioxopiperidin-3-yl)isoindolin-1,3-dione] |  | IC50 ([2]; read-out: 22RV1 IC50 (nM)): 12 nM |
| CC(=O)c1ccc(Oc2ccc(C(C)(C)c3ccc(O[C@H]4C[C@@H](Nc5ccc6c(c5)C(=O)N(C5CCC(=O)NC5=O)C6=O)C4)cc3)cc2)nn1 (stereo partly shown) [Example 523] | < 10 nM | IC50 [2, 3]: 6 nM |
| CC(C)(c1ccc(OCc2ccnc(N3CC4(CCOCC4)C3)n2)cc1)c1ccc(O[C@H]2C[C@@H](Nc3ccc4c(c3)C(=O)N(C3CCC(=O)NC3=O)C4=O)C2)cc1 (stereo partly shown) [Example 89, 5-(((1s,3s)-3-(4-(2-(4-((2-(7-oxa-2-azaspiro[3.5]nonan-2-yl)pyrimidin-4-yl)methoxy)phenyl)propan-2-yl)phenoxy)cyclobutyl)amino)-2-(2,6-dioxopiperidin-3-yl)isoindolin-1,3-dione] | < 10 nM | IC50 [2, 3]: 16 nM |
| CC(C)(c1ccc(OCc2cncc(N3CC4(COC4)C3)n2)cc1)c1ccc(O[C@H]2C[C@@H](Nc3ccc4c(c3)C(=O)N(C3CCC(=O)NC3=O)C4=O)C2)cc1 (stereo partly shown) [Example 538] |  | IC50 [2, 3]: 12 nM |
| CC(C)(c1ccc(OCc2cc(N3CC4(COC4)C3)ncn2)cc1)c1ccc(OC2CC(Nc3ccc4c(c3)C(=O)N(C3CCC(=O)NC3=O)C4=O)C2)cc1 (stereo not shown) [Example 532] |  | IC50 [2, 3]: 9 nM |
| CC(C)(c1ccc(OCc2nccc(N3CC4(COC4)C3)n2)cc1)c1ccc(O[C@H]2C[C@H](Nc3ccc4c(c3)C(=O)N(C3CCC(=O)NC3=O)C4=O)C2)cc1 (stereo partly shown) [Example 544] |  | IC50 [2, 3]: 12 nM |
| CC(C)(c1ccc(Oc2ccnc(N3CC4(COC4)C3)n2)cc1)c1ccc(O[C@H]2C[C@@H](Nc3ccc4c(c3)C(=O)N(C3CCC(=O)NC3=O)C4=O)C2)cc1 (stereo partly shown) [Example 459] | 11 to 100 nM |  |
| CC(C)(c1ccc(OCc2ccnc(NS(C)(=O)=O)n2)cc1)c1ccc(OC[C@H]2CC[C@H](COCCCCCNc3ccc4c(c3)C(=O)N(C3CCC(=O)NC3=O)C4=O)CC2)cc1 (stereo partly shown) [Example 56, N-(4-((4-(2-(4-(((1r,4r)-4-(((5-((2-(2,6-dioxopiperidin-3-yl)-1,3-dioxoisoindolin-5-yl)amino)pentyl)oxy)methyl)cyclohexyl)methoxy)phenyl)isopropan-2-yl)phenoxy)methyl)pyrimidin-2-yl)methanesulfonamide] |  | DC50 ([1]; numeric values): 5200 nM |
| Cc1nnc(-c2ccnc(Oc3ccc(C(C)(C)c4ccc(O[C@H]5C[C@H](Nc6ccc7c(c6)C(=O)N(C6CCC(=O)NC6=O)C7=O)C5)cc4)cc3)c2)o1 (stereo partly shown) [Example 257] | 11 to 100 nM |  |
| CC(=O)c1nccc(COc2ccc(C(C)(C)c3ccc(N4CC5(C4)CN(c4ccc6c(c4)C(=O)N(C4CCC(=O)NC4=O)C6=O)C5)cc3)cc2)n1 (stereo not shown) [Example 488] | 11 to 100 nM |  |
| C[C@@H]1CN[C@@H](C)CN1c1nccc(COc2ccc(C(C)(C)c3ccc(O[C@H]4C[C@@H](Nc5ccc6c(c5)C(=O)N(C5CCC(=O)NC5=O)C6=O)C4)cc3)cc2)n1 (stereo partly shown) [Example 411] | 11 to 100 nM |  |
| CC(C)(c1ccc(Oc2ccnc(-n3ccnn3)c2)cc1)c1ccc(O[C@H]2C[C@H](Nc3ccc4c(c3)C(=O)N(C3CCC(=O)NC3=O)C4=O)C2)cc1 (stereo partly shown) [Example 163, 5-((1r,3r)-3-(4-(2-(2-(4-((1H-1,2,3-triazol-2-yl)pyridin-4-yl)oxy)phenyl)propan-2-ylphenoxy)cyclobutyl)amino)-2-(2,6-dioxopiperidin-3-yl)isoindolin-1,3-dione] | 11 to 100 nM |  |
| CC(=O)c1nccc(COc2ccc(C(C)(C)c3ccc(OCCCNc4cccc5c4C(=O)N(C4CCC(=O)NC4=O)C5=O)cc3)cc2)n1 (stereo not shown) [Example 344, 4-((3-(4-(2-(4-((2-acetylpyrimidin-4-yl)methoxy)phenyl)isopropan-2-yl)phenoxy)propyl)amino)-2-(2,6-dioxopiperidin-3-yl)isoindolin-1,3-dione] | 1000 to 5000 nM |  |
| CC(C)(c1ccc(OCc2ccnc(N3CCC4(CC3)CNC4)n2)cc1)c1ccc(O[C@H]2C[C@@H](Nc3ccc4c(c3)C(=O)N(C3CCC(=O)NC3=O)C4=O)C2)cc1 (stereo partly shown) [Example 84, 5-(((1s,3s)-3-(4-(2-(4-((2-(2,7-diazaspiro[3.5]nonan-7-yl)pyrimidin-4-yl)methoxy)phenyl)propan-2-yl)phenoxy)cyclobutyl)amino)-2-(2,6-dioxopiperidin-3-yl)isoindolin-1,3-dione] | 11 to 100 nM |  |
| CC(C)(c1ccc(OCCCOCCCNc2ccc3c(c2)C(=O)N(C2CCC(=O)NC2=O)C3=O)cc1)c1ccc(OCc2ccnc(NS(C)(=O)=O)n2)cc1 (stereo not shown) [Example 18] |  | DC50 ([1]; numeric values): > 10000 nM |
| CC(C)(c1ccc(OCCCCCCCCOCCCCNc2ccc3c(c2)C(=O)N(C2CCC(=O)NC2=O)C3=O)cc1)c1ccc(OCc2cccc(NS(C)(=O)=O)n2)cc1 (stereo not shown) [Example 33, N-(6-((4-(2-(4-((8-(4-((2-(2,6-dioxopiperidin-3-yl)-1,3-dioxoisoindolin-5-yl)amino)butoxy)octyl)oxy)phenyl)propan-2-yl)phenoxy)methyl)pyridin-2-yl)methanesulfonamide] | 101 to 1000 nM |  |
| C[C@@H]1CN(c2nccc(COc3ccc(C(C)(C)c4ccc(O[C@H]5C[C@@H](Nc6ccc7c(c6)C(=O)N(C6CCC(=O)NC6=O)C7=O)C5)cc4)cc3)n2)C[C@H](C)N1 (stereo partly shown) [Example 433, 5-(((1s,3s)-3-(4-(2-(4-((2-((3s,5r)-3,5-dimethylpiperazin-1-yl)pyrimidin-4-yl)methoxy)phenyl)propan-2-yl)phenoxy)cyclobutyl)amino)-2-(2,6-dioxopiperidin-3-yl)isoindolin-1,3-dione] | 11 to 100 nM |  |
| CC(=O)c1nccc(COc2ccc(C(C)(C)c3ccc(O[C@H]4CC[C@H](Nc5ccc6c(c5)C(=O)N(C5CCC(=O)NC5=O)C6=O)CC4)cc3)cc2)n1 (stereo partly shown) [Example 353, 5-(((1r,4r)-4-(4-(2-(4-((2-acetylpyrimidin-4-yl)methoxy)phenyl)isopropan-2-yl)phenoxy)cyclohexyl)amino)-2-(2,6-dioxopiperidin-3-yl)isoindolin-1,3-dione] | 1000 to 5000 nM |  |
| CC(C)(c1ccc(OCc2ccnc(NS(C)(=O)=O)n2)cc1)c1ccc(OC[C@H]2CC[C@H](CN3CCC(CN4CCN(c5ccc6c(c5)C(=O)N(C5CCC(=O)NC5=O)C6=O)CC4)CC3)CC2)cc1 (stereo partly shown) [Example 43] |  | DC50 ([1]; numeric values): > 10000 nM |
| CC(C)(c1ccc(Oc2ccc(-n3nccn3)cc2)cc1)c1ccc(O[C@H]2C[C@H](Nc3ccc4c(c3)C(=O)N(C3CCC(=O)NC3=O)C4=O)C2)cc1 (stereo partly shown) [Example 334] | 11 to 100 nM |  |
| CC(C)(c1ccc(OCc2ccnc(N3CC4(COC4)C3)n2)cc1)c1ccc(N2CC(CNc3ccc4c(c3)C(=O)N(C3CCC(=O)NC3=O)C4=O)C2)cc1 (stereo not shown) [Example 570] | 101 to 1000 nM |  |
| CC(C)(c1ccc(OCc2ccnc(NS(C)(=O)=O)n2)cc1)c1ccc(OC2CN(CCCCCOCCCCNc3ccc4c(c3)C(=O)N(C3CCC(=O)NC3=O)C4=O)C2)cc1 (stereo not shown) [Example 14] |  | DC50 ([1]; numeric values): > 10000 nM |
| CC(C)(c1ccc(Oc2ccc(N3CC4(COC4)C3)nn2)cc1)c1ccc(O[C@H]2C[C@@H](Nc3ccc4c(c3)C(=O)N(C3CCC(=O)NC3=O)C4=O)C2)cc1 (stereo partly shown) [Example 317] | 11 to 100 nM |  |
| CC(C)(c1ccc(OCc2ccnc(N3CC4(CNC4)C3)n2)cc1)c1ccc(O[C@H]2C[C@@H](Nc3ccc4c(c3)C(=O)N(C3CCC(=O)NC3=O)C4=O)C2)cc1 (stereo partly shown) [Example 86] | 11 to 100 nM |  |
